In the experiment the target is T1, human recombinant HPK1 (Homo sapiens, UniProt Q92918).
T1 construct: purchased BPS Bioscience
Description: Inhibitory activity against human recombinant HPK1 (TR-FRET). It counts as biochemical. The conditions noted are these: ULight-p70S6K peptide, ATP at Km, room temperature, 1 hour, 0.32 to 1000 nM compound. The method, boiled down: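 IC50 classes A–D use 10, 50 and 100 nM cut-offs, derived from TR-FRET signal inhibition relative to DMSO controls. Human recombinant HPK1 phosphorylated ULight-p70S6K peptide at Km ATP for 1 h, room temperature, pH 7.4; test range 0.32–1000 nM final, detection with Eu-labelled antibody after EDTA quench.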
In general terms: TR-FRET usually uses a lanthanide donor and a delayed reading to cut background.

Counter-ions that a name gives are not always drawn. A value given as a limit tells only on which side of the number the result lay.

Broadly, the IC50 is the concentration at which inhibition is half-maximal.

T1 sequence (Q92918 whole entry): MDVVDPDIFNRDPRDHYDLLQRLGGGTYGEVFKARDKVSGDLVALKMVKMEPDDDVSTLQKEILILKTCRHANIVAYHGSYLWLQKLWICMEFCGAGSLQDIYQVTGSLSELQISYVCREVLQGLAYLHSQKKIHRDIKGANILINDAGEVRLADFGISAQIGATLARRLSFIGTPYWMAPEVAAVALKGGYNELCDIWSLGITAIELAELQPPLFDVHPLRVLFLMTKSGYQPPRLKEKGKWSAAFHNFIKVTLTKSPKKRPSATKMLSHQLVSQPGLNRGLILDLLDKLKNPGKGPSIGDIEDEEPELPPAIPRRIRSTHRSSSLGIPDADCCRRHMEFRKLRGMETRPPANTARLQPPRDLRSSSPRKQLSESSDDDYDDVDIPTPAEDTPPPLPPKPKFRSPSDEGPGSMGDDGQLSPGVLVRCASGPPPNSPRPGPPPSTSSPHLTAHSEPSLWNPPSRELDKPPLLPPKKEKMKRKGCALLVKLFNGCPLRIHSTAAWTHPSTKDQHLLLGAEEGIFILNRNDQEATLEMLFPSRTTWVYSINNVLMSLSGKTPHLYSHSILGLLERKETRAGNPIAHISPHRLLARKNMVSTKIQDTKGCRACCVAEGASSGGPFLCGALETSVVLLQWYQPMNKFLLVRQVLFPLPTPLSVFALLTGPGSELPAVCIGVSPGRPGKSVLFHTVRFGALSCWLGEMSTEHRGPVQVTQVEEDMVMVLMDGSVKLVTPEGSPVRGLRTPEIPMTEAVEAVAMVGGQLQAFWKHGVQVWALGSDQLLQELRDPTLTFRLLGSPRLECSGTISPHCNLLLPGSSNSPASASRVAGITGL

As for `COc1cccc(F)c1-c1nccc(Nc2cc(N3CCC[C@H](N)C3)c(-c3ccc(NC(C)=O)cc3)cn2)n1` [Example 279, (S)-N-(4-(4-(3-aminopiperidin-1-yl)-6-((2-(2-fluoro-6-methoxyphenyl)pyrimidin-4-yl)amino)pyridin-3-yl)phenyl)acetamide hydrochloride], the IC50 is at most 10 nM. For `COc1cccc(F)c1-c1nccc(Nc2cc(N3CCC[C@H](N)C3)c(-c3cccc(C(=O)N(C)C)c3)cn2)n1` [Example 280, (S)-3-(4-(3-aminopiperidin-1-yl)-6-((2-(2-fluoro-6-methoxyphenyl)pyrimidin-4-yl)amino)pyridin-3-yl)-N,N-dimethylbenzamide hydrochloride] the value was at most 10 nM; for `COc1cccc(F)c1-c1nccc(Nc2cc(N3CCC[C@H](N)C3)c(-c3ccc(OC(F)(F)F)c(C)c3)cn2)n1` [Example 281, (S)-N-(4-(3-aminopiperidin-1-yl)-5-(3-methyl-4-(trifluoromethoxy)phenyl)pyridin-2-yl)-2-(2-fluoro-6-methoxyphenyl)pyrimidin-4-amine hydrochloride], at most 10 nM; for `COc1cccc(F)c1-c1nccc(Nc2cc(N3CCC[C@H](N)C3)c(-c3ccc(F)c(C)c3)cn2)n1` [Example 282, (S)-N-(4-(3-aminopiperidin-1-yl)-5-(4-fluoro-3-methylphenyl)pyridin-2-yl)-2-(2-fluoro-6-methoxyphenyl)pyrimidin-4-amine hydrochloride], at most 10 nM. For `COc1cccc(F)c1-c1nccc(Nc2cc(N3CCC[C@H](N)C3)c(-c3cnn(C4CCNCC4)c3)cn2)n1` [Example 283, (S)-N-(4-(3-aminopiperidin-1-yl)-5-(1-(piperidin-4-yl)-1H-pyrazol-4-yl)pyridin-2-yl)-2-(2-fluoro-6-methoxyphenyl)pyrimidin-4-amine hydrochloride] the value was at most 10 nM; for `COc1cccc(F)c1-c1nccc(Nc2cc(N3CCC[C@H](N)C3)c(-c3cc(C)c(OC(C)C)c(C)c3)cn2)n1` [Example 284, (S)-N-(4-(3-aminopiperidin-1-yl)-5-(4-isopropoxy-3,5-dimethylphenyl)pyridin-2-yl)-2-(2-fluoro-6-methoxyphenyl)pyrimidin-4-amine hydrochloride], at most 10 nM.

Regarding `COc1cccc(F)c1-c1nccc(Nc2cc(N3CCC[C@H](N)C3)c(-c3cc(C)c(OC)c(C)c3)cn2)n1` [Example 285, (S)-N-(4-(3-aminopiperidin-1-yl)-5-(4-methoxy-3,5-dimethylphenyl)pyridin-2-yl)-2-(2-fluoro-6-methoxyphenyl)pyrimidin-4-amine hydrochloride], the IC50 was at most 10 nM.

As to `COc1cccc(F)c1-c1nccc(Nc2cc(N3CCC[C@H](N)C3)c(-c3ccc(N4CCOCC4)cc3)cn2)n1` [Example 286, (S)-N-(4-(3-aminopiperidin-1-yl)-5-(4-morpholinophenyl)pyridin-2-yl)-2-(2-fluoro-6-methoxyphenyl)pyrimidin-4-amine hydrochloride], the half-inhibitory concentration (IC50) is at most 10 nM. As for `COc1cccc(F)c1-c1nccc(Nc2cc(N3CCC[C@H](N)C3)c(-c3ccc(N4CCOCC4)c(C)c3)cn2)n1` [Example 287, (S)-N-(4-(3-aminopiperidin-1-yl)-5-(3-methyl-4-morpholinophenyl)pyridin-2-yl)-2-(2-fluoro-6-methoxyphenyl)pyrimidin-4-amine hydrochloride], the figure is at most 10 nM; as for `COc1cccc(F)c1-c1nccc(Nc2cc(N3CCC[C@H](N)C3)c(-c3ccc(C(=O)N4CCN(CCO)CC4)cc3)cn2)n1` [Example 288, (S)-(4-(4-(3-aminopiperidin-1-yl)-6-((2-(2-fluoro-6-methoxyphenyl)pyrimidin-4-yl)amino)pyridin-3-yl)phenyl)(4-(2-hydroxyethyl)piperazin-1-yl)methanone hydrochloride], at most 10 nM. For `COc1cccc(F)c1-c1nccc(Nc2cc(N3CCC[C@H](N)C3)c(-c3ccc(C(=O)N[C@H]4CC[C@H](O)CC4)cc3)cn2)n1` [Example 289, 4-(4-((S)-3-aminopiperidin-1-yl)-6-((2-(2-fluoro-6-methoxyphenyl)pyrimidin-4-yl)amino)pyridin-3-yl)-N-((1r,4S)-4-hydroxycyclohexyl)benzamide hydrochloride] the value was at most 10 nM; for `COc1cccc(F)c1-c1nccc(Nc2cc(N3CCC[C@H](N)C3)c(-c3ccc(C(=O)N(C)C)c(F)c3)cn2)n1` [Example 290, (S)-4-(4-(3-aminopiperidin-1-yl)-6-((2-(2-fluoro-6-methoxyphenyl)pyrimidin-4-yl)amino)pyridin-3-yl)-2-fluoro-N,N-dimethylbenzamide hydrochloride], at most 10 nM.

Consider `COc1cccc(F)c1-c1nccc(Nc2cc(N3CCC[C@H](N)C3)c(-c3cccc(C(C)=O)c3)cn2)n1` [Example 291, (S)-1-(3-(4-(3-aminopiperidin-1-yl)-6-((2-(2-fluoro-6-methoxyphenyl)pyrimidin-4-yl)amino)pyridin-3-yl)phenyl)ethan-1-one hydrochloride], for which the IC50 is at most 10 nM. As for `COc1cccc(F)c1-c1nccc(Nc2cc(N3CCC[C@H](N)C3)c(-c3ccc(F)c(Cl)c3)cn2)n1` [Example 292, (S)-N-(4-(3-aminopiperidin-1-yl)-5-(3-chloro-4-fluorophenyl)pyridin-2-yl)-2-(2-fluoro-6-methoxyphenyl)pyrimidin-4-amine hydrochloride], the figure is at most 10 nM. On to `COc1cccc(F)c1-c1nccc(Nc2cc(N3CCC[C@H](N)C3)c(-c3ccc(F)c(C(F)(F)F)c3)cn2)n1` [Example 293, (S)-N-(4-(3-aminopiperidin-1-yl)-5-(4-fluoro-3-(trifluoromethyl)phenyl)pyridin-2-yl)-2-(2-fluoro-6-methoxyphenyl)pyrimidin-4-amine hydrochloride], for which the IC50 was at most 10 nM.

In the case of `COc1cccc(F)c1-c1nccc(Nc2cc(N3CCC[C@H](N)C3)c(-c3ccc(F)c(F)c3)cn2)n1` [Example 294, (S)-N-(4-(3-aminopiperidin-1-yl)-5-(3,4-difluorophenyl)pyridin-2-yl)-2-(2-fluoro-6-methoxyphenyl)pyrimidin-4-amine hydrochloride], the IC50 is at most 10 nM. `COc1cccc(F)c1-c1nccc(Nc2cc(N3CC[C@@H](N)[C@H](O)C3)c(-c3cnn(C(F)F)c3)cn2)n1` [Example 295, (3R,4R)-4-amino-1-(5-(1-(difluoromethyl)-1H-pyrazol-4-yl)-2-((2-(2-fluoro-6-methoxyphenyl)pyrimidin-4-yl)amino)pyridin-4-yl)piperidin-3-ol]: the IC50 is at most 10 nM.

Take `COc1cccc(F)c1-c1nccc(Nc2cc(N3CCC[C@H](N)C3)c(-c3ccc(F)c(N(C)C)c3)cn2)n1` [Example 296, (S)-N-(4-(3-aminopiperidin-1-yl)-5-(3-(dimethylamino)-4-fluorophenyl)pyridin-2-yl)-2-(2-fluoro-6-methoxyphenyl)pyrimidin-4-amine hydrochloride]: the IC50 is at most 10 nM. For `COc1cccc(F)c1-c1nccc(Nc2cc(N3CC[C@H](N)[C@H](C)C3)c(-c3cnn(C(F)F)c3)cn2)n1` [Example 297, N-(4-((3R,4S)-4-amino-3-methylpiperidin-1-yl)-5-(1-(difluoromethyl)-1H-pyrazol-4-yl)pyridin-2-yl)-2-(2-fluoro-6-methoxyphenyl)pyrimidin-4-amine hydrochloride] the value was at most 10 nM. For `COc1cccc(F)c1-c1nccc(Nc2cc(N3CCC[C@H](N)C3)c(-c3cnn([C@H]4CCOC4)c3)cn2)n1` [Example 298, N-(4-((S)-3-aminopiperidin-1-yl)-5-(1-((S)-tetrahydrofuran-3-yl)-1H-pyrazol-4-yl)pyridin-2-yl)-2-(2-fluoro-6-methoxyphenyl)pyrimidin-4-amine hydrochloride] the value was at most 10 nM. As for `COc1cccc(F)c1-c1nccc(Nc2cc(N3CCC[C@H](N)C3)c(-c3cnn([C@@H]4CCOC4)c3)cn2)n1` [Example 299, N-(4-((S)-3-aminopiperidin-1-yl)-5-(1-((R)-tetrahydrofuran-3-yl)-1H-pyrazol-4-yl)pyridin-2-yl)-2-(2-fluoro-6-methoxyphenyl)pyrimidin-4-amine hydrochloride], the figure is at most 10 nM; as for `COc1cccc(F)c1-c1nc(Nc2cc(N3CCC[C@H](N)C3)c(-c3cnn(C4CCOCC4)c3)cn2)ccc1C#N` [Example 300, 6-((4-((S)-3-aminopiperidin-1-yl)-5-(1-(tetrahydro-2H-pyran-4-yl)-1H-pyrazol-4-yl)pyridin-2-yl)amino)-2-(2-fluoro-6-methoxyphenyl)nicotinonitrile hydrochloride], at most 10 nM; as for `COc1cccc(F)c1-c1nc(Nc2cc(N3CCC[C@H](N)C3)c(-c3cnn(C(F)F)c3)cn2)ccc1C#N` [Example 301, 6-((4-((S)-3-aminopiperidin-1-yl)-5-(1-(difluoromethyl)-1H-pyrazol-4-yl)pyridin-2-yl)amino)-2-(2-fluoro-6-methoxyphenyl)nicotinonitrile hydrochloride], at most 10 nM.

Turning to `COc1cccc(F)c1-c1nccc(Nc2cc(N3CC[C@H](N)[C@@H](F)C3)c(-c3cnn(C(F)F)c3)cn2)n1` [Example 302, N-(4-((3S,4S)-4-amino-3-fluoropiperidin-1-yl)-5-(1-(difluoromethyl)-1H-pyrazol-4-yl)pyridin-2-yl)-2-(2-fluoro-6-methoxyphenyl)pyrimidin-4-amine hydrochloride], the IC50 was at most 10 nM.

As to `COc1cccc(F)c1-c1nccc(Nc2cc(N3C[C@@H](N)C[C@@H](F)C3)c(-c3cnn(C(F)F)c3)cn2)n1` [Example 303, N-(4-((3S,5R)-3-amino-5-fluoropiperidin-1-yl)-5-(1-(difluoromethyl)-1H-pyrazol-4-yl)pyridin-2-yl)-2-(2-fluoro-6-methoxyphenyl)pyrimidin-4-amine hydrochloride], the IC50 is at most 10 nM.

The values above are taken from patent publication US20260347338A1, “PYRIMIDINE/PYRIDINE DERIVATIVES OR SALTS THEREOF AND PHARMACEUTICAL COMPOSITIONS COMPRISING THE SAME” (YUHAN CORPORATION, priority 2023, published 2026).
